Consider 28 compounds from ChEMBL document CHEMBL1122339, “Structure-activity studies of configurationally rigid arylprostaglandins” (1983).

Active and inactive are the calls of the source. The rule behind the calls is not given here.

For one test, the species on record is Cavia porcellus. As to the kind of experiment: In vitro potency relative to PGE-2 (=100 for uterine stimulant activity in guinea pig at 0.1-10 ug/mL concentration). The format is functional.
Test [1] relates to Mus musculus. Nature of the test: In vivo potency relative to PGE-2 =100 for diarrheal activity in conscious mice. The format is functional.
Test [2] deals with Mus musculus. As to the kind of experiment: In vivo potency relative to PGE-2 =100 for diarrheal activity in conscious mice at 0.3-3.0 mg/kg, iv; No effect. The format is functional, organism-based.

Regarding `O=C(O)CCC/C=C\C[C@@H]1C(/C=C/[C@H](O)[C@H]2CCc3ccccc3C2)[C@H](O)C[C@@H]1O` (stereo partly drawn), the Relative potency in the test filed under Cavia porcellus is 0.1.
On the same count and under the same terms, the value for `O=C(O)CCC/C=C\C[C@H]1C(=O)C[C@@H](O)C1/C=C/[C@H](O)[C@@H]1CCc2ccccc2C1` (stereo partly drawn) was 2.
With `O=C(O)CCC/C=C\C[C@H]1C(=O)C[C@@H](O)C1/C=C/[C@H](O)C1Cc2ccccc2O1` (stereo partly drawn), the Relative potency amounted to 19 in the test filed under Cavia porcellus and 15 in the test with Mus musculus [1].
For `O=C(O)CCC/C=C\C[C@@H]1C(/C=C/[C@@H](O)COc2ccccc2)[C@H](O)C[C@@H]1O` (stereo partly drawn) the same measures were 15 and 150.
On to `O=C(O)CCC/C=C\C[C@@H]1C(/C=C/[C@@H](O)[C@@H]2CCc3ccccc3C2)[C@H](O)C[C@@H]1O` (stereo partly drawn), for which the Relative potency in the test filed under Cavia porcellus is given as 18; with Mus musculus [1], 40.
In the case of `O=C(O)CCC/C=C\C[C@@H]1C(/C=C/[C@H](O)[C@@H]2CCc3ccccc3C2)[C@H](O)C[C@@H]1O` (stereo partly drawn), the Relative potency in the test listed under Cavia porcellus was found to be 0.1.
With `O=C(O)CCC/C=C\C[C@@H]1C(/C=C/[C@@H](O)[C@@H]2Cc3ccccc3O2)[C@H](O)C[C@@H]1O` (stereo partly drawn), the Relative potency in the test listed under Cavia porcellus stood at 5; in the test with Mus musculus [1], 190.
Turning to `O=C(O)CCC/C=C\C[C@@H]1C(/C=C/[C@@H](O)[C@H]2CCc3ccccc3C2)[C@H](O)C[C@@H]1O` (stereo partly drawn), the Relative potency in the test filed under Cavia porcellus came out at 2; in the test on Mus musculus [1], 10.
As for `O=C(O)CCC/C=C\C[C@@H]1C(/C=C/[C@H](O)C2Cc3ccccc3C2)[C@H](O)C[C@@H]1O` (stereo partly drawn), the Relative potency result with Mus musculus [2] was “inactive”. Moreover, in the test filed under Cavia porcellus, the Relative potency amounted to 0.07.
In the case of `O=C(O)CCC/C=C\C[C@@H]1C(/C=C/[C@@H](O)C2Cc3ccccc3C2)[C@H](O)C[C@@H]1O` (stereo partly drawn), the Relative potency in the test filed under Cavia porcellus is on record as 0.3; in the test with Mus musculus [1], 50.
For `O=C(O)CCC/C=C\C[C@H]1C(=O)C[C@@H](O)C1/C=C/[C@@H](O)C1Cc2ccccc2C1` (stereo partly drawn) the same measures were 6 and 25.
Consider `O=C(O)CCC/C=C\C[C@H]1C(=O)C[C@@H](O)C1/C=C/[C@@H](O)[C@H]1Cc2ccccc2O1` (stereo partly drawn), for which the Relative potency result in the test on Mus musculus [2] is “inactive”. In the test listed under Cavia porcellus, this compound displayed a Relative potency of 0.1.
With `O=C(O)CCC/C=C\C[C@H]1C(=O)C[C@@H](O)C1/C=C/[C@@H](O)[C@@H]1CCc2ccccc2O1` (stereo partly drawn), the Relative potency in the test listed under Cavia porcellus came out at 130; in the test with Mus musculus [1], 730.
For the compound `O=C(O)CCC/C=C\C[C@H]1C(=O)C[C@@H](O)C1/C=C/[C@@H](O)[C@H]1CCc2ccccc2O1` (stereo partly drawn), the Relative potency worked out at 66 in the test listed under Cavia porcellus and 270 with Mus musculus [1].
For `O=C(O)CCC/C=C\C[C@@H]1C(/C=C/[C@H](O)C2Cc3ccccc3O2)[C@H](O)C[C@@H]1O` (stereo partly drawn) the same measures were 0.3 and 15.
As to `O=C(O)CCC/C=C\C[C@@H]1C(/C=C/[C@@H](O)[C@@H]2CCc3ccccc3O2)[C@H](O)C[C@@H]1O` (stereo partly drawn), the Relative potency in the test filed under Cavia porcellus worked out at 25; in the test on Mus musculus [1], 1100.
Regarding `O=C(O)CCC/C=C\C[C@H]1C(=O)C[C@@H](O)C1/C=C/[C@H](O)[C@H]1CCc2ccccc2C1` (stereo partly drawn), in the test on Mus musculus [2], the Relative potency entry is “inactive”. Also, the Relative potency in the test listed under Cavia porcellus came to 0.1.
For `O=C(O)CCC/C=C\C[C@@H]1C(/C=C/[C@@H](O)[C@H]2CCc3ccccc3O2)[C@H](O)C[C@@H]1O` (stereo partly drawn), the Relative potency amounted to 19 in the test listed under Cavia porcellus and 310 with Mus musculus [1].
`O=C(O)CCC/C=C\C[C@H]1C(=O)C[C@@H](O)C1/C=C/[C@@H](O)[C@H]1CCc2ccccc2C1` (stereo partly drawn): the Relative potency result with Mus musculus [2] is “inactive”. Moreover, the Relative potency in the test listed under Cavia porcellus amounted to 44.
Turning to `O=C(O)CCC/C=C\C[C@@H]1C(/C=C/[C@H](O)[C@H]2CCc3ccccc3O2)[C@H](O)C[C@@H]1O` (stereo partly drawn), the Relative potency in the test listed under Cavia porcellus turned out to be 0.8.
For the compound `O=C(O)CCC/C=C\C[C@H]1C(=O)C[C@@H](O)C1/C=C/[C@H](O)C1Cc2ccccc2C1` (stereo partly drawn), the Relative potency entry with Mus musculus [2] was “inactive”. Also, the Relative potency in the test filed under Cavia porcellus came out at 0.3.
For the compound `O=C(O)CCC/C=C\C[C@@H]1C(/C=C/[C@H](O)[C@@H]2CCc3ccccc3O2)[C@H](O)C[C@@H]1O` (stereo partly drawn), the Relative potency in the test listed under Cavia porcellus came to 0.4.
With `O=C(O)CCC/C=C\C[C@H]1C(=O)C[C@@H](O)C1/C=C/[C@@H](O)[C@@H]1CCc2ccccc2C1` (stereo partly drawn), the figures for the Relative potency in the test filed under Cavia porcellus and with Mus musculus [1] were 36 and 40, respectively.
In the case of `O=C(O)CCC/C=C\C[C@@H]1C(/C=C/[C@@H](O)[C@H]2Cc3ccccc3O2)[C@H](O)C[C@@H]1O` (stereo partly drawn), the Relative potency came to 0.2 in the test listed under Cavia porcellus and 10 with Mus musculus [1].
For the compound `O=C(O)CCC/C=C\C[C@@H]1C(/C=C/[C@H](O)COc2ccccc2)[C@H](O)C[C@@H]1O` (stereo partly drawn), the Relative potency in the test listed under Cavia porcellus is recorded as 300.
On the same count and under the same terms, the result for `O=C(O)CCC/C=C\C[C@H]1C(=O)C[C@@H](O)C1/C=C/[C@H](O)[C@@H]1CCc2ccccc2O1` (stereo partly drawn) reads 7.
As for `O=C(O)CCC/C=C\C[C@H]1C(=O)C[C@@H](O)C1/C=C/[C@@H](O)[C@@H]1Cc2ccccc2O1` (stereo partly drawn), the Relative potency in the test listed under Cavia porcellus was 18; with Mus musculus [1], more than 250.
For the compound `O=C(O)CCC/C=C\C[C@H]1C(=O)C[C@@H](O)C1/C=C/[C@H](O)[C@H]1CCc2ccccc2O1` (stereo partly drawn), the Relative potency in the test filed under Cavia porcellus came to 3.
